Data: the supplement of paper PMC10307832

Assays:
Test in all cases: relative viability (nuclei count vs DMSO), 5 days (fraction); higher = more cells survive
[1] = compound: N#CC[C@H](C1CCCC1)n1cc(-c2ncnc3[nH]ccc23)cn1 [Ruxolitinib] + N=C(N)NC(=N)NCCc1ccccc1 [Phenformin] (partner 250 µM)
Procedure, shortened: (§1)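 Lung cancer cell lines were seeded in 1536-well plates and dosed by pin tool the next day, with either a single drug or a fixed anchor-drug dose combined with five library-drug doses (not always all listed) spaced in √10 steps. Five days later, one step fixed the cells and stained their nuclei (final 0.05% Triton X-100, 1% formaldehyde, 1 ug/ml Hoechst), and nuclei were counted on 4× images. Relative viability is the nuclei count in treated wells divided by the count in vehicle wells, and each value is the median of duplicate plates.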

[2] = compound: N#CC[C@H](C1CCCC1)n1cc(-c2ncnc3[nH]ccc23)cn1 [Ruxolitinib] + CS(=O)(=O)CCNCc1ccc(-c2ccc3ncnc(Nc4ccc(OCc5cccc(F)c5)c(Cl)c4)c3c2)o1 [Lapatinib] (partner 2 µM)
Procedure, shortened: as §1

[3] = compound: CS(=O)(=O)c1ccc(C(=O)Nc2ccc(Cl)c(-c3ccccn3)c2)c(Cl)c1 [Vismodegib] + Cc1nc(Nc2ncc(C(=O)Nc3c(C)cccc3Cl)s2)cc(N2CCN(CCO)CC2)n1 [Dasatinib] (partner 0.075 µM)
Procedure, shortened: as §1

[4] = compound: CS(=O)(=O)c1ccc(-c2cnc(N)c(C(=O)Nc3ccccc3)n2)cc1 [VE-821] + Cc1nc(Nc2ncc(C(=O)Nc3c(C)cccc3Cl)s2)cc(N2CCN(CCO)CC2)n1 [Dasatinib] (partner 0.075 µM)
Procedure, shortened: as §1

Row | Cell Line | relative viability ([1]; first compound 0.08 µM) | relative viability ([1]; first compound 0.253 µM) | relative viability ([1]; first compound 0.8 µM) | relative viability ([1]; first compound 2.53 µM) | relative viability ([1]; first compound 8 µM) | relative viability ([2]; first compound 0.08 µM) | relative viability ([2]; first compound 0.253 µM) | relative viability ([2]; first compound 0.8 µM) | relative viability ([2]; first compound 2.53 µM) | relative viability ([2]; first compound 8 µM) | relative viability ([3]; first compound 0.08 µM) | relative viability ([3]; first compound 0.253 µM) | relative viability ([3]; first compound 0.8 µM) | relative viability ([3]; first compound 2.53 µM) | relative viability ([3]; first compound 8 µM) | relative viability ([4]; first compound 0.08 µM) | relative viability ([4]; first compound 0.253 µM) | relative viability ([4]; first compound 0.8 µM) | relative viability ([4]; first compound 2.53 µM) | relative viability ([4]; first compound 8 µM)
1 | NCI-H23 | 0.892 | 0.807 | 0.804 | 0.67 | 0.727 | 1.03 | 1.27 | 1.2 | 0.775 | 0.852 | 0.81 | 0.825 | 0.73 | 0.838 | 0.754 | 0.881 | 0.746 | 0.78 | 0.603 | 0.283
2 | SK-LU-1 | 0.551 | 0.529 | 0.637 | 0.433 | 0.422 | 0.973 | 0.991 | 0.896 | 0.819 | 0.693 | 0.211 | 0.196 | 0.204 | 0.211 | 0.211 | 0.17 | 0.19 | 0.163 | 0.16 | 0.12
3 | NCI-H1395 | 0.435 | 0.418 | 0.489 | 0.455 | 0.408 |  | 0.879 | 1.16 | 0.777 | 0.944 | 0.385 | 0.389 | 0.398 | 0.417 | 0.414 | 0.396 | 0.432 | 0.38 | 0.45 | 0.401
4 | NCI-H2170 | 0.382 | 0.391 | 0.417 | 0.374 | 0.351 | 0.303 | 0.253 | 0.302 | 0.276 | 0.301 | 0.542 | 0.623 | 0.627 | 0.62 | 0.639 | 0.62 | 0.465 | 0.463 | 0.421 | 0.381
5 | LOU-NH91 |  | 0.708 | 0.765 | 0.63 | 0.747 | 0.786 | 0.666 | 0.844 | 0.764 | 0.865 | 0.55 | 0.554 | 0.526 | 0.547 | 0.511 | 0.571 | 0.489 | 0.567 | 0.55 | 0.584
6 | NCI-H647 | 0.481 | 0.517 | 0.502 | 0.481 | 0.531 | 1.11 | 1.09 | 1.19 | 0.651 | 1.02 | 0.222 | 0.202 | 0.177 | 0.18 | 0.194 | 0.232 | 0.168 | 0.152 | 0.194 | 0.122
7 | LXF-289 | 0.509 | 0.492 | 0.538 | 0.491 | 0.497 | 0.849 | 0.891 | 0.861 | 0.825 | 0.786 | 0.237 | 0.214 | 0.202 | 0.286 | 0.26 | 0.235 | 0.247 | 0.195 | 0.223 | 0.155
8 | PC-3 [JPC-3] | 0.428 | 0.477 | 0.477 | 0.443 | 0.481 | 0.452 | 0.431 | 0.46 | 0.488 | 0.505 | 0.947 | 0.985 | 1.03 | 0.974 | 0.924 | 1.06 | 0.967 | 1.07 | 1.02 | 0.907
9 | NCI-H2009 | 0.414 | 0.443 | 0.535 | 0.423 | 0.297 | 1.05 | 0.997 | 1.09 | 0.737 | 0.633 | 0.286 | 0.261 | 0.234 | 0.3 | 0.344 | 0.332 | 0.263 | 0.212 | 0.26 | 0.16
10 | LK-2 | 0.337 | 0.499 | 0.359 | 0.292 | 0.692 |  | 0.893 | 1.23 | 0.997 | 0.964 | 0.316 | 0.355 | 0.325 | 0.255 | 0.376 | 0.269 | 0.26 | 0.273 | 0.352 | 0.38
11 | NCI-H1993 | 0.497 | 0.526 | 0.473 | 0.572 | 0.51 | 0.821 | 0.696 | 0.977 | 0.863 | 0.78 | 0.499 | 0.763 | 0.562 | 0.565 | 0.554 | 0.563 | 0.503 | 0.523 | 0.524 | 0.538
12 | HCC-15 | 0.423 | 0.444 | 0.494 | 0.393 | 0.399 | 0.859 | 0.905 | 0.869 | 0.786 | 0.779 | 0.631 | 0.58 | 0.582 | 0.66 | 0.585 | 0.704 | 0.595 | 0.6 | 0.721 | 0.495
13 | NCI-H322M | 0.777 | 0.768 | 0.936 | 0.962 | 1.02 | 0.638 | 0.68 | 0.67 | 0.687 | 0.873 | 0.244 | 0.25 | 0.243 | 0.245 | 0.255 | 0.255 | 0.264 | 0.248 | 0.301 | 0.268
